Reference: US20090203738A1, “Pharmaceutical Composition for Treating Bulimia and Depression Arising from Bulimia” (priority 2005, published 2009)
Counter-ions that a name gives are not always drawn. Like-named read-outs stand apart in the source and are kept apart here.

Columns and labels:
[1] = system: patient with excessive eating and vomiting (bulimia) and depressive state; settings: patient history: drug therapy and spiritual therapy at three neurological hospitals before the first examination; cited from earlier work
[2] = system: patients suffering from light to medium Alzheimer's disease; settings: 24-week, double-blind, placebo-controlled trial; cited from earlier work
[3] = system: patient with excessive eating and vomiting (bulimia), insensitive to 60 mg of fluoxetine
Description: An excessive eating started when they were the third year class ([…]) of high school and it is still continuing. At the first medical examination, they were unable to go to university.

bulimia = settings: cited from earlier work

Fc1ccc([C@@H]2CCNC[C@H]2COc2ccc3c(c2)OCO3)cc1 [Paxil]
improvement under earlier drug therapy [1]: no improvement was noted

Cc1nc2n(c(=O)c1CCN1CCC(c3noc4cc(F)ccc34)CC1)CCCC2 [Risperdal]
improvement under earlier drug therapy [1]: no improvement was noted

O=C1CN=C(c2ccccc2Cl)c2cc([N+](=O)[O-])ccc2N1 [Rivotril]
improvement under earlier drug therapy [1]: no improvement was noted

CN1C(=O)CN=C(c2ccccc2)c2cc(Cl)ccc21 [diazepam]
improvement under earlier drug therapy [1]: no improvement was noted

COc1cc2c(cc1OC)C(=O)C(CC1CCN(Cc3ccccc3)CC1)C2 (stereo not shown) [donepezil hydrochloride, 1-benzyl-4-[(5,6-dimethoxy-1-indanon)-2-yl]methylpiperidine]
cognitive ability and general function [2]: improves the cognitive ability and general function

CNCCC(Oc1ccc(C(F)(F)F)cc1)c1ccccc1 (stereo not shown) [fluoxetine]
improvement in excessive eating ([3]; 20 mg of fluoxetine for two weeks): no improvement in excessive eating was noted | improvement in excessive eating ([3]; fluoxetine increased to 40 mg): no improvement was noted yet | amount and frequency of excessive eating ([3]; fluoxetine increased up to 60 mg, for two weeks): no decrease in amount and frequency of excessive eating were noted | depression ([3]; fluoxetine up to 60 mg, six weeks from the initiation of the therapy): No change in depression was noted | rate of improvement (bulimia; bulimia, 60 mg per day): about 60%

COCCCC/C(=N\OCCN)c1ccc(C(F)(F)F)cc1 [fluvoxamine]
improvement under earlier drug therapy [1]: no improvement was noted

OC1(c2ccc(Cl)cc2)c2ccccc2C2=NCCN21 (stereo not shown) [mazindol]
side effects (bulimia; applied for bulimia): excitation, frustration, load on cardiovascular system, dysuria and others

CCCC(CCC)C(=O)[O-].[Na+] [sodium valproate]
improvement under earlier drug therapy [1]: no improvement was noted
